Data taken from patent US20090099238A1, “USE OF A PPAR-ALPHA AGONIST TO TREAT PATIENTS SUFFERING FROM WEIGHT GAIN ASSOCIATED WITH A PPAR-GAMMA AGONIST TREATMENT” (priority 2003, published 2009).

What was measured:
[1] = Glycemia in obese Zucker rats under fenofibrate, rosiglitazone or co-administration (Example 1); type: in vivo
Experimental: (§1) Male homozygous Zucker rats of 9 to 11 weeks of age and their lean controls were received from Iffa-Credo (France). They were put into individual cages in a temperature-, humidity- and light-controlled room (21-23° C., 12-12 h light-dark cycle). […] After acclimatization, they were randomized into groups of 10, based on body weight.
(§2) The experimental groups were: Group 1=lean rats, untreated; Group 2=obese rats, treated with the vehicle p.o., twice daily (at 8 a.m. and 8 p.m.); Group 3=obese rats, treated with Fenofibrate, 100 mg/kg, p.o., twice daily (at 8 a.m. and 8 p.m.); Group 4=obese rats, treated with Rosiglitazone. 0.3 mg/kg, p.o., twice daily (at 8 a.m. and 8 p.m.); Group 5=obese rats, treated with Rosiglitazone, 3.0 mg/kg., p.o., twice daily (at 8 a.m. and 8 p.m.); Group 6=obese rats, treated with Fenofibrate, 100 mg/kg and Rosiglitazone, 0.3 mg/kg, p.o., twice daily (at 8 a.m. and 8 p.m.); Group 7=obese rats, treated with Fenofibrate, 100 mg/kg and Rosiglitazone, 3.0 mg/kg, p.o., twice daily (at 8 a.m. and 8 p.m.).
(§3) The following parameters were monitored: glycemia (mg/dl) and body weight gain (g).

[2] = Body weight (gain) in obese Zucker rats under fenofibrate, rosiglitazone or co-administration (Example 1); type: in vivo
Experimental: as §1, §2, §3

[3] = fatty Zucker rats; cited from earlier work
[4] = Group 4: Rosiglitazone 0.3 mg/kg p.o. twice daily, after 41 days of treatment
[5] = Group 4: Rosiglitazone 0.3 mg/kg p.o. twice daily, after 69 days of treatment
[6] = Group 5: Rosiglitazone 3.0 mg/kg p.o. twice daily, after 41 days of treatment
[7] = Group 5: Rosiglitazone 3.0 mg/kg p.o. twice daily, after 69 days of treatment
[8] = Group 3: Fenofibrate 100 mg/kg p.o. twice daily, after 41 days of treatment
[9] = Group 3: Fenofibrate 100 mg/kg p.o. twice daily, after 69 days of treatment

Structure (SMILES): CN(CCOc1ccc(CC2SC(=O)NC2=O)cc1)c1ccccn1 (stereo not drawn) [Rosiglitazone, rosiglitazone]
- Glycemia [1, 4]: 274.6 ± 56.4 mg/dL
- Glycemia [1, 5]: 446.0 ± 52.4 mg/dL
- Glycemia [1, 6]: 119.6 ± 5.9 mg/dL
- Glycemia [1, 7]: 151.4 ± 6.5 mg/dL
- Body Weight [2, 4]: 538.5 ± 15.8 g
- Body Weight [2, 5]: 615.2 ± 25.9 g
- Body Weight [2, 6]: 601.4 ± 9.3 g
- Body Weight [2, 7]: 721.0 ± 12.3 g

Structure (SMILES): CC(C)OC(=O)C(C)(C)Oc1ccc(C(=O)c2ccc(Cl)cc2)cc1 [Fenofibrate, fenofibrate]
- Glycemia [1, 8]: 222.2 ± 53.1 mg/dL
- Glycemia [1, 9]: 372.5 ± 78.5 mg/dL
- Body Weight [2, 8]: 357.0 ± 7.9 g
- Body Weight [2, 9]: 380.6 ± 13.7 g

Structure (SMILES): COc1ccc(CC2SC(=O)NC2=O)cc1C(=O)NCc1ccc(C(F)(F)F)cc1 (stereo not drawn) [KRP 297]
- body weight gain (result in words) [3]: no change in body weight gain
- serum insulin (result in words) [3]: affected serum triglycerides and insulin
- serum triglycerides (result in words) [3]: affected serum triglycerides and insulin
